Source: US12318403B2, “2′3′-cyclic dinucleotides and prodrugs thereof” (INSTITUTE OF ORGANIC CHEMISTRY AND BIOCHEMISTRY ASCR, V.V.I., priority 2019, dated 2025)
Where two headings read alike, the source gives them in different places.

Legend:
human WT STING = target: T1, human WT STING (Homo sapiens, UniProt Q86WV6, H232R); experiment: Differential Scanning Fluorimetry with WT STING; type: binding; details: thermal shift vs STING apoprotein; 150 μM CDN; truncated WT STING (residues 140-343)
T1 construct: truncated human WT STING or AQ STING (amino acid residues 140-343); 8xHis (N, cleaved yes); SUMO (N, cleaved yes); made in house; host or cells: E. coli Rosetta-gami B (DE3)

[1] = target: T2, AQ human STING (G230A-R293Q) (Homo sapiens, UniProt Q86WV6, G230A/H232R/R293Q); experiment: Differential Scanning Fluorimetry with AQ STING; type: binding; details: thermal shift vs STING apoprotein; 150 μM CDN; truncated AQ STING (residues 140-343)
T2 construct: truncated human WT STING or AQ STING (amino acid residues 140-343); 8xHis (N, cleaved yes); SUMO (N, cleaved yes); made in house; host or cells: E. coli Rosetta-gami B (DE3)

[2] = target: T3, human wild type STING (WT STING) (Homo sapiens, UniProt Q86WV6, H232R); experiment: 293T WT STING standard reporter assay; type: cell-based; details: standard reporter assay without digitonin, 7 hours, ISRE firefly luciferase
[3] = target: T3, human wild type STING (WT STING); experiment: Digitonin assay using 293T wtSTING-FL reporter cells; type: cell-based; details: 293T wtSTING-FL cells; compounds in Digitonin buffer 30 minutes, then 5 hours in medium; ISRE firefly luciferase
[4] = test system: peripheral blood mononuclear cell (PBMC); experiment: Peripheral blood mononuclear cell assay; details: average of one to four donors
Experimental: Selected compounds were tested in an in vitro peripheral blood mononuclear cell (PBMC) assay. […] Serially diluted tested compounds were added to wells in 50 μl of cultivation medium and cells were incubated with the compounds for 1h at 37° C. with 5% CO2. Plates with cells were then spun 500 g for 5 minutes and the medium was removed. Cells were washed twice with the cell culture medium by the use of centrifugation and gently resuspended in 100 μl medium without compounds. After 15 hour incubation at 37° C. with 5% CO2, the cell culture medium was collected and the levels of interferon-alpha (INF-α), interferon-gamma (INF-γ) and tumor necrosis factor-alpha (TNF-α) were determined with ProcartaPlex Assays (ThermoFisher, Waltham, USA) and MAGPIX System (Merck KGaA, Darmstadt, Germany). […] Values reported are an average of runs from one to four donors.

[5] = 293T wtSTING-FL cells, read-out: 293T WT STING EC50
[6] = PBMC, read-out: PBMC EC50 IFN-γ, compounds 1h, washed, 15 hour incubation, interferon-gamma level in medium
[7] = read-out: PBMC EC50 IFN-α, compounds 1h, washed, 15 hour incubation, interferon-alpha level in medium
[8] = read-out: PBMC EC50 TNF-α, compounds 1h, washed, 15 hour incubation, tumor necrosis factor-alpha level in medium
[9] = read-out: PBMC EC50 IFN-γ, compounds 1h, washed, 15 hour incubation, interferon-gamma level in medium
[10] = 293T WT STING EC50, 293T wtSTING-FL cells
[11] = PBMC, read-out: PBMC EC50 IFN-α, compounds 1h, washed, 15 hour incubation, interferon-alpha level in medium
[12] = PBMC, read-out: PBMC EC50 TNF-α, compounds 1h, washed, 15 hour incubation, tumor necrosis factor-alpha level in medium

T3 sequence (Q86WV6 whole entry H232R): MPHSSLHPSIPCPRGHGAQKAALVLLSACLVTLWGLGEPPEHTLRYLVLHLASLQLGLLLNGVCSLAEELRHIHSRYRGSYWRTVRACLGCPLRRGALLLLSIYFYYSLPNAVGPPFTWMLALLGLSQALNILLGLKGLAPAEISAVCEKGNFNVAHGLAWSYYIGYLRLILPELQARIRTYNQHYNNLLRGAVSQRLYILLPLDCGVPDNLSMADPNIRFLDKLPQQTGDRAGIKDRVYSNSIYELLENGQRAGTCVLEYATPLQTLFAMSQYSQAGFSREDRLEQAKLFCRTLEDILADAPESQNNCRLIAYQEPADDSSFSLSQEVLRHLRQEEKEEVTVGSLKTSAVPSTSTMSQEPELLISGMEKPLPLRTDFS
T2 sequence (Q86WV6 140-343 G230A/H232R/R293Q): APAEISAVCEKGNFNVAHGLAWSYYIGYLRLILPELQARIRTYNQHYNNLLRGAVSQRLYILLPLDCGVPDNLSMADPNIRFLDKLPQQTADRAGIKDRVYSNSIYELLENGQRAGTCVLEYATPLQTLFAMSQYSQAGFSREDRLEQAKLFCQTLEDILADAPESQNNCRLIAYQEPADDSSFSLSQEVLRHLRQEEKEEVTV
T1 sequence (Q86WV6 140-343 H232R): as the sequence (Q86WV6 140-343 G230A/H232R/R293Q) above, with A91G, Q154R counted along it

SMILES: Nc1nc2c(ncn2[C@@H]2O[C@@H]3COP(=O)(S)CO[C@H]4[C@@H](F)[C@H](n5cnc6c(N)ncnc65)O[C@@H]4COP(=O)(O)O[C@@H]2[C@@H]3F)c(=O)[nH]1 (single isomer, unassigned) [Compound 15b]
- DSF ΔTm WT STING (human WT STING): 19.4 °C
- DSF ΔTm AQ STING [1]: 27.0 °C
- EC50 [2, 5]: 4700 nM

SMILES: Nc1ncnc2c1ncn2[C@@H]1O[C@@H]2COP(=O)(S)O[C@@H]3[C@H](F)[C@@H](COP(=O)(S)CO[C@H]2[C@H]1F)O[C@H]3n1cnc2c(N)ncnc21 (single isomer, unassigned) [Compound 30a]
- EC50 [3]: 11200 nM

SMILES: Nc1ncnc2c1ncn2[C@@H]1O[C@@H]2COP(=O)(S)O[C@@H]3[C@H](F)[C@@H](COP(=O)(S)CO[C@H]2[C@H]1F)O[C@H]3n1cnc2c(N)ncnc21 (single isomer, unassigned) [Compound 30b]
- EC50 [3]: 400 nM

SMILES: Nc1ncnc2c1ncn2[C@@H]1O[C@@H]2COP(=O)(S)O[C@@H]3[C@H](F)[C@@H](COP(=O)(S)CO[C@H]2[C@H]1F)O[C@H]3n1cnc2c(N)ncnc21 (single isomer, unassigned) [Compound 30c]
- EC50 [3]: 600 nM

SMILES: CC(C)(C)C(=O)OCOP1(=O)CO[C@H]2[C@@H](F)[C@H](n3cnc4c(N)ncnc43)O[C@@H]2COP(=O)(OCOC(=O)C(C)(C)C)O[C@@H]2[C@H](F)[C@@H](CO1)O[C@H]2n1cnc2c(=O)[nH]cnc21 (single isomer, unassigned) [Compound 77a]
- EC50 [2, 5]: 600 nM
- EC50 [4, 6]: 1700 nM
- EC50 [4, 7]: 2800 nM
- EC50 [4, 8]: 1400 nM

SMILES: CC(C)(C)C(=O)OCOP1(=O)CO[C@H]2[C@@H](F)[C@H](n3cnc4c(N)ncnc43)O[C@@H]2COP(=O)(OCOC(=O)C(C)(C)C)O[C@@H]2[C@H](F)[C@@H](CO1)O[C@H]2n1cnc2c(=O)[nH]cnc21 (single isomer, unassigned) [Compound 77b]
- EC50 [2, 5]: 300 nM
- EC50 [4, 7]: 4000 nM
- EC50 [4, 9]: 3000 nM
- EC50 [4, 8]: 3600 nM

SMILES: CC(C)(C)C(=O)OCOP1(=O)CO[C@H]2[C@@H](F)[C@H](n3cnc4c(N)ncnc43)O[C@@H]2COP(=O)(OCOC(=O)C(C)(C)C)O[C@@H]2[C@H](F)[C@@H](CO1)O[C@H]2n1cnc2c(=O)[nH]cnc21 (single isomer, unassigned) [Compound 77c]
- EC50 [2, 5]: 200 nM
- EC50 [4, 7]: 700 nM
- EC50 [4, 9]: 2300 nM
- EC50 [4, 8]: 3700 nM

SMILES: CCCCCCCCCCCC(=O)OCSP1(=O)CO[C@H]2[C@@H](F)[C@H](n3cnc4c(N)ncnc43)O[C@@H]2COP(=O)(SCOC(=O)CCCCCCCCCCC)O[C@@H]2[C@H](F)[C@@H](CO1)O[C@H]2n1cnc2c(=O)[nH]c(N)nc21 (single isomer, unassigned) [Compound 78c]
- EC50 [2, 10]: 60 nM
- EC50 [4, 11]: 3400 nM
- EC50 [4, 8]: 3000 nM

SMILES: CCCCCCCCCCCC(=O)OCSP1(=O)CO[C@H]2[C@@H](F)[C@H](n3cnc4c(N)ncnc43)O[C@@H]2COP(=O)(SCOC(=O)CCCCCCCCCCC)O[C@@H]2[C@H](F)[C@@H](CO1)O[C@H]2n1cnc2c(=O)[nH]c(N)nc21 (single isomer, unassigned) [Compound 78d]
- EC50 [2, 10]: 40 nM
- EC50 [4, 7]: 3400 nM
- EC50 [4, 8]: 800 nM

SMILES: CCCCCCCCCCCC(=O)OCOP1(=O)CO[C@H]2[C@@H](F)[C@H](n3cnc4c(N)ncnc43)O[C@@H]2COP(=O)(OCOC(=O)CCCCCCCCCCC)O[C@@H]2[C@H](F)[C@@H](CO1)O[C@H]2n1cnc2c(=O)[nH]cnc21 (single isomer, unassigned) [Compound 79a]
- EC50 [2, 5]: 3 nM
- EC50 [4, 11]: 200 nM
- EC50 [4, 9]: 100 nM

SMILES: CCCCCCCCCCCC(=O)OCOP1(=O)CO[C@H]2[C@@H](F)[C@H](n3cnc4c(N)ncnc43)O[C@@H]2COP(=O)(OCOC(=O)CCCCCCCCCCC)O[C@@H]2[C@H](F)[C@@H](CO1)O[C@H]2n1cnc2c(=O)[nH]cnc21 (single isomer, unassigned) [Compound 79b]
- EC50 [2, 5]: 20 nM
- EC50 [4, 7]: 200 nM
- EC50 [4, 9]: 10 nM
- EC50 [4, 8]: 200 nM

SMILES: CCCCCCCCCCCC(=O)OCOP1(=O)CO[C@H]2[C@@H](F)[C@H](n3cnc4c(N)ncnc43)O[C@@H]2COP(=O)(OCOC(=O)CCCCCCCCCCC)O[C@@H]2[C@H](F)[C@@H](CO1)O[C@H]2n1cnc2c(=O)[nH]cnc21 (single isomer, unassigned) [Compound 79c]
- EC50 [2, 5]: 3 nM
- EC50 [4, 7]: 100 nM
- EC50 [4, 9]: 50 nM
- EC50 [4, 8]: 90 nM

SMILES: CC(C)OC(=O)OCOP1(=O)CO[C@H]2[C@@H](F)[C@H](n3cnc4c(N)ncnc43)O[C@@H]2COP(=O)(OCOC(=O)OC(C)C)O[C@@H]2[C@H](F)[C@@H](CO1)O[C@H]2n1cnc2c(N)ncnc21 (single isomer, unassigned) [Compound 80a]
- EC50 [2, 5]: 4200 nM
- EC50 [4, 11]: > 5000 nM
- EC50 [4, 6]: > 5000 nM
- EC50 [4, 12]: > 5000 nM

SMILES: CC(C)OC(=O)OCOP1(=O)CO[C@H]2[C@@H](F)[C@H](n3cnc4c(N)ncnc43)O[C@@H]2COP(=O)(OCOC(=O)OC(C)C)O[C@@H]2[C@H](F)[C@@H](CO1)O[C@H]2n1cnc2c(N)ncnc21 (single isomer, unassigned) [Compound 80c]
- EC50 [2, 5]: 1100 nM
- EC50 [4, 7]: > 5000 nM
- EC50 [4, 9]: > 5000 nM
- EC50 [4, 8]: > 5000 nM

SMILES: CC(C)(C)C(=O)OCOP1(=O)CO[C@H]2[C@@H](F)[C@H](n3cnc4c(N)ncnc43)O[C@@H]2COP(=O)(OCOC(=O)C(C)(C)C)O[C@@H]2[C@H](F)[C@@H](CO1)O[C@H]2n1cnc2c(N)ncnc21 (single isomer, unassigned) [Compound 81a]
- EC50 [2, 5]: 50 nM
- EC50 [4, 11]: 1400 nM
- EC50 [4, 6]: 1700 nM
- EC50 [4, 12]: 1600 nM

SMILES: CC(C)(C)C(=O)OCOP1(=O)CO[C@H]2[C@@H](F)[C@H](n3cnc4c(N)ncnc43)O[C@@H]2COP(=O)(OCOC(=O)C(C)(C)C)O[C@@H]2[C@H](F)[C@@H](CO1)O[C@H]2n1cnc2c(N)ncnc21 (single isomer, unassigned) [Compound 81b]
- EC50 [2, 5]: 50 nM
- EC50 [4, 7]: 1000 nM
- EC50 [4, 9]: 1400 nM
- EC50 [4, 8]: 1300 nM

SMILES: Nc1nc2c(ncn2[C@@H]2O[C@@H]3COP(=O)(O)O[C@@H]4[C@H](O)[C@@H](COP(=O)(O)O[C@@H]2[C@@H]3O)O[C@H]4n2cnc3c(N)ncnc32)c(=O)[nH]1 [2′2′-cGAMP, reference compound]
- DSF ΔTm AQ STING [1]: 19.4 °C
- EC50 [3]: 30 nM
- EC50 [2, 5]: 10200 nM

SMILES: Nc1ncnc2c1ncn2[C@@H]1O[C@@H]2COP(=O)(O)O[C@@H]3[C@H](F)[C@@H](COP(=O)(O)CO[C@H]2[C@H]1F)O[C@H]3n1cnc2c(=O)[nH]cnc21 [Compound 22]
- EC50 [2, 5]: 8100 nM
- EC50 [4, 11]: 160000 nM
- EC50 [4, 6]: 125000 nM
- EC50 [4, 12]: 90000 nM

SMILES: CC(C)OC(=O)OCOP1(=O)CO[C@H]2[C@@H](F)[C@H](n3cnc4c(N)ncnc43)O[C@@H]2COP(=O)(OCOC(=O)OC(C)C)O[C@@H]2[C@H](F)[C@@H](CO1)O[C@H]2n1cnc2c(N)ncnc21 (stereo partly drawn) [Compound 80b, {[(1S,6R,8R,9R,10R,16R,18R,19R)-8,18-bis(6-amino-9H-purin-9-yl)-9,19-difluoro-3,13-dioxo-13-({[(propan-2-yloxy)carbonyl]oxy}methoxy)-2,4,7,11,14,17-hexaoxa-3λ^5,13λ^5-diphosphatricyclo[14.2.1.0^6,10]nonadecan-3-yl]oxy}methyl propan-2-yl carbonate]
- EC50 [2, 5]: 900 nM
- EC50 [4, 11]: 1300 nM
- EC50 [4, 6]: 1600 nM
- EC50 [4, 12]: 1500 nM
